Assay results as given in a compilation of properties of binary mixtures (doi:10.1007/s11426-012-4655-1).

Assay: xn = mol fraction of the nth substance listed
Conditions: 101 kPa

CCCCCCCCn1cc[n+](C)c1.[Cl-] + CCCCCCCCn1cc[n+](C)c1.F[B-](F)(F)F
x1 = 1
Conditions	electrical conductivity [S/m]	viscosity [mPa·s]
303 K	0.0021	–
308 K	0.0035	–
318 K	0.0086	–
323 K	0.0129	–
323.15 K	–	2043
328 K	0.0187	–
333 K	0.0266	–
333.15 K	–	930

CCCCCCCCn1cc[n+](C)c1.F[B-](F)(F)F + CCCCCCCCn1cc[n+](C)c1.[Cl-]
Conditions	electrical conductivity [S/m]	viscosity [mPa·s]
303 K, x2 = 0.2	0.0443	–
303 K, x2 = 0.4	0.0225	–
303 K, x2 = 0.6	0.011	–
303.15 K, x2 = 0.2	–	530
303.15 K, x2 = 0.6	–	2399
308 K, x2 = 0	0.107	–
308 K, x2 = 0.2	0.0605	–
308 K, x2 = 0.4	0.0317	–
308 K, x2 = 0.6	0.0163	–
308 K, x2 = 0.8	0.0085	–
308.15 K, x2 = 0	–	194
308.15 K, x2 = 0.2	–	380
308.15 K, x2 = 0.4	–	760
308.15 K, x2 = 0.6	–	1565
313 K, x2 = 0	0.137	–
313 K, x2 = 0.2	0.0801	–
313 K, x2 = 0.4	0.0438	–
313 K, x2 = 0.8	0.0128	–
313.15 K, x2 = 0	–	149
313.15 K, x2 = 0.2	–	279
313.15 K, x2 = 0.4	–	530
313.15 K, x2 = 0.6	–	1065
313.15 K, x2 = 0.8	–	2245
318 K, x2 = 0.4	0.0595	–
318 K, x2 = 0.8	0.0186	–
318.15 K, x2 = 0	–	116
318.15 K, x2 = 0.2	–	211
318.15 K, x2 = 0.4	–	390
318.15 K, x2 = 0.6	–	740
323 K, x2 = 0	0.215	–
323 K, x2 = 0.2	0.136	–
323 K, x2 = 0.4	0.0791	–
323 K, x2 = 0.8	0.0264	–
323.15 K, x2 = 0	–	92
323.15 K, x2 = 0.2	–	162
323.15 K, x2 = 0.4	–	287
323.15 K, x2 = 0.6	–	520
323.15 K, x2 = 0.8	–	1015
328 K, x2 = 0	0.263	–
328 K, x2 = 0.4	0.102	–
328 K, x2 = 0.6	0.0607	–
328 K, x2 = 0.8	0.0366	–
328.15 K, x2 = 0	–	74
328.15 K, x2 = 0.2	–	127
328.15 K, x2 = 0.4	–	216
328.15 K, x2 = 0.6	–	370
328.15 K, x2 = 0.8	–	710
333 K, x2 = 0.2	0.211	–
333 K, x2 = 0.4	0.13	–
333 K, x2 = 0.6	0.0797	–
333 K, x2 = 0.8	0.0514	–
333.15 K, x2 = 0.2	–	100
333.15 K, x2 = 0.4	–	166
333.15 K, x2 = 0.6	–	279
333.15 K, x2 = 0.8	–	500

CCCCCC[n+]1ccn(C)c1.F[P-](F)(F)(F)(F)F + CCCCCC[n+]1ccn(C)c1.[Cl-]
Conditions	electrical conductivity [S/m]	viscosity [mPa·s]
303 K, x2 = 0	0.0747	–
303 K, x2 = 0.2	0.0399	–
303 K, x2 = 0.4	0.0205	–
303 K, x2 = 0.6	0.0104	–
303 K, x2 = 0.8	0.0054	–
303.15 K, x2 = 0	–	500
308 K, x2 = 0	0.0993	–
308 K, x2 = 0.2	0.0556	–
308 K, x2 = 0.6	0.0158	–
308 K, x2 = 0.8	0.0086	–
308.15 K, x2 = 0.2	–	680
308.15 K, x2 = 0.4	–	1238
313 K, x2 = 0.2	0.0751	–
313 K, x2 = 0.6	0.0235	–
313 K, x2 = 0.8	0.0133	–
313.15 K, x2 = 0	–	273
313.15 K, x2 = 0.2	–	490
313.15 K, x2 = 0.4	–	850
313.15 K, x2 = 0.6	–	1501
318 K, x2 = 0	0.166	–
318 K, x2 = 0.2	0.1	–
318 K, x2 = 0.4	0.0584	–
318 K, x2 = 0.8	0.0199	–
318.15 K, x2 = 0	–	208
318.15 K, x2 = 0.2	–	360
318.15 K, x2 = 0.6	–	1014
323 K, x2 = 0	0.21	–
323 K, x2 = 0.2	0.131	–
323 K, x2 = 0.4	0.0793	–
323 K, x2 = 0.6	0.0476	–
323 K, x2 = 0.8	0.0291	–
323.15 K, x2 = 0	–	162
323.15 K, x2 = 0.2	–	268
323.15 K, x2 = 0.4	–	430
323.15 K, x2 = 0.8	–	1154
328 K, x2 = 0.2	0.166	–
328 K, x2 = 0.4	0.105	–
328 K, x2 = 0.6	0.0648	–
328.15 K, x2 = 0	–	128
328.15 K, x2 = 0.4	–	322
328.15 K, x2 = 0.6	–	500
328.15 K, x2 = 0.8	–	790
333 K, x2 = 0	0.319	–
333 K, x2 = 0.2	0.21	–
333 K, x2 = 0.4	0.137	–
333 K, x2 = 0.6	0.0875	–
333 K, x2 = 0.8	0.0582	–
333.15 K, x2 = 0	–	102
333.15 K, x2 = 0.2	–	159
333.15 K, x2 = 0.4	–	242
333.15 K, x2 = 0.6	–	370
333.15 K, x2 = 0.8	–	550
